Laboratory results reported in patent US7915293B2, “Ubiquitin ligase inhibitors” (Rigel Pharmaceuticals, Inc., priority 2003, dated 2011).

Experiments:
Parameters in all cases: key: “+” indicates that the compound exibits inhibitory activity; “−” indicates that low or no inhibitory activity was observed
[1] = target: MDM2 / p53 substrate (Homo sapiens, UniProt Q00987); test: Plate-based MDM2 substrate ligation assay (MDM2-P53-FLAG); type: biochemical; conditions: 8 concentrations tested
Excerpt: This assay was preformed essentially as described in WO 03/076899 (page 77, line 5 to page 80, line 13), hereby incorporated by reference in its entirety.

[2] = target: E3 (His-APC11/APC2-"APC") (Homo sapiens, UniProt Q9NYG5+Q9UJX6); test: Plate-based E3 ligase assay (APC FLAG), auto-ubiquitination; type: biochemical; conditions: 8 concentrations tested
Method in brief: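 His-APC11/APC2 auto-ubiquitination was run in casein-blocked nickel plates for 1 h at room temperature, with E1 at 5 ng/well, UbcH5c at 20 ng/well and APC at 100 ng/well. Buffer was 62.5 mM Tris pH 7.6, 3 mM MgCl2, 1 mM DTT, 2.5 mM ATP and Flag-ubiquitin at 100 ng/well. Detection used anti-Flag/HRP chemiluminescence, and IC50 was typically from 6 or 8 concentrations versus a DMSO control.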

[3] = tested on: A549 cells; test: Cell proliferation assay, photographic image analysis of proliferation, apoptosis and death (PAD assay), A549; type: cell-based; conditions: 6 concentrations tested
Method in brief: (§1)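 Cells grown in RPMI with 5% FBS (2,000/well) and dosed 24 h after plating with 6.3-fold dilutions in duplicate (master plate 500× final, top 10 mM stock). After 48 h at 37 °C, cells formamide-fixed and DAPI-stained. Image analysis counted live, apoptotic and dead cells.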

[4] = tested on: HeLa cells; test: Cell proliferation assay, photographic image analysis of proliferation, apoptosis and death (PAD assay), HeLa; type: cell-based; conditions: 6 concentrations tested
Method in brief: as §1

[5] = tested on: HCT116 cells; test: Cell proliferation assay, photographic image analysis of proliferation, apoptosis and death (PAD assay), HCT116; type: cell-based; conditions: 6 concentrations tested
Protocol: (§2) A549 (ATCC# CCL-185), HeLa (ATCC# CCL-2), HCT116 (ATCC# CCL-247), and H1299 (ATCC# CRL-5803) cells were maintained in T175 flasks following the ATCC recommended media and handling procedures. Flasks reaching approximately 70% confluency were trypsinized and resuspended in RPMI media (Cell-Gro catalog number 10-040-CM) modified to contain 5% FBS, 100 ug/mlPen/Strep (Cell-Gro catalog number 30-002-CL), and 0.3 mg/ml L-Glutamine (Cell-Gro catalog number 25-003-CL). A 20,000 cells/ml solution was made for plating. Cells were plated in black Packard 96 well plates by placing 100 μl per well (2,000 cells per well).
(§3) Compounds and additional media were added 24 hours after cell plating. A compound master plate was created with concentrations 500 times greater than the final concentration added to the cells. All compound testing was done in duplicate using 6.3 fold dilutions starting with 10 mM. All outside wells (and 4 internal wells) were DMSO controls. Taxol and at least one additional control were run on all plates. Three microliters of the compound master plate were added to deep well blocks containing 750 μl of RPMI media. One hundred microliters were transferred from the compound/media deep well blocks to the plated cells resulting in a 500 fold dilution of the compounds. Cells were grown at 37° C., 5% CO2 for 48 hours.
(§4) Cells to be analyzed by photography were fixed and stained. One hundred microliters of media were removed and 100 μl of 9.3% […] was added to each well. Plates were left on the benchtop for 45 minutes. A staining solution containing 1.55 μl of 1 mg/ml DAPI added to 18.75 ml PBS was warmed for 15 minutes at 37° C. The cells were aspirated prior to washing with 100 μl of PBS. Seventy microliters of PBS were aspirated and 170 μl of the DAPI solution were added to each well of fixed cells. Plates were left at room temperature for one hour then aspirated and washed twice with 100 μl of PBS. The stained cells were left at 4° C. for a minimum of 16 hours before photographic analysis with Array Scan II (Cellomics). Analysis of the photographic images to determine numbers of live cells (proliferation), apoptotic cells and dead cells, were according to the methods described in U.S. Provisional Patent Application Ser. No. 60/406,714, which incorporated herein in its entirety.

[6] = tested on: H1299 cells; test: Cell proliferation assay, photographic image analysis of proliferation, apoptosis and death (PAD assay), H1299; type: cell-based; conditions: 6 concentrations tested
Protocol: as §2, §3, §4

[7] = tested on: A549 cells; test: Non-photographic proliferation analysis (Promega Cell titer Aqueous), A549; type: cell-based; conditions: 6 concentrations tested
Protocol: as §2, §3
(§5) Some cell plates were treated with Promega Cell titer Aqueous 1 kit (promega—VWR catalog number G3580). In this case, 48 hours after the test compound were added, 100 μl of media were removed and 20 μl of cell titer reagent were added to all wells. Plates were incubated at 37° C. for 45 minutes prior to absorbance reads on the Wallac plate reader at 490 nm for 0.1 sec/well.

[8] = tested on: HeLa cells; test: Non-photographic proliferation analysis (Promega Cell titer Aqueous), HeLa; type: cell-based; conditions: 6 concentrations tested
Protocol: as §2, §3, §5

[9] = tested on: HCT116 cells; test: Non-photographic proliferation analysis (Promega Cell titer Aqueous), HCT116; type: cell-based; conditions: 6 concentrations tested
Protocol: as §2, §3, §5

Sequence of MDM2 / p53 substrate (Q00987 whole entry): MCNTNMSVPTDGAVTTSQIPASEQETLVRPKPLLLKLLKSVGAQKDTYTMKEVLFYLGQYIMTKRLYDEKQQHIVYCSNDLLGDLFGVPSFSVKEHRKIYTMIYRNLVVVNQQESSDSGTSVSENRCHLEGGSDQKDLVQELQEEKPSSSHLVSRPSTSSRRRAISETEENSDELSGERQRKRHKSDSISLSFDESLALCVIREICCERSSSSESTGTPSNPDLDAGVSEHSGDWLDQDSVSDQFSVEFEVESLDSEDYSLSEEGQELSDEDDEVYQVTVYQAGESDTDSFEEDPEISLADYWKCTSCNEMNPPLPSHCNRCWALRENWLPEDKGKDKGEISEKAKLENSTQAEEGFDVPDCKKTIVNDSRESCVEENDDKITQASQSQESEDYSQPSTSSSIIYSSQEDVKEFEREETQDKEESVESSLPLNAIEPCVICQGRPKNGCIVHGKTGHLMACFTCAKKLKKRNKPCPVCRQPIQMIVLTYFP
Sequence of E3 (His-APC11/APC2-"APC") (Q9NYG5 whole entry): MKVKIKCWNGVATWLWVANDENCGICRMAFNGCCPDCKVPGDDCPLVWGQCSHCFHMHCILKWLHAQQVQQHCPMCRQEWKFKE
Sequence of E3 (His-APC11/APC2-"APC") (Q9UJX6 whole entry): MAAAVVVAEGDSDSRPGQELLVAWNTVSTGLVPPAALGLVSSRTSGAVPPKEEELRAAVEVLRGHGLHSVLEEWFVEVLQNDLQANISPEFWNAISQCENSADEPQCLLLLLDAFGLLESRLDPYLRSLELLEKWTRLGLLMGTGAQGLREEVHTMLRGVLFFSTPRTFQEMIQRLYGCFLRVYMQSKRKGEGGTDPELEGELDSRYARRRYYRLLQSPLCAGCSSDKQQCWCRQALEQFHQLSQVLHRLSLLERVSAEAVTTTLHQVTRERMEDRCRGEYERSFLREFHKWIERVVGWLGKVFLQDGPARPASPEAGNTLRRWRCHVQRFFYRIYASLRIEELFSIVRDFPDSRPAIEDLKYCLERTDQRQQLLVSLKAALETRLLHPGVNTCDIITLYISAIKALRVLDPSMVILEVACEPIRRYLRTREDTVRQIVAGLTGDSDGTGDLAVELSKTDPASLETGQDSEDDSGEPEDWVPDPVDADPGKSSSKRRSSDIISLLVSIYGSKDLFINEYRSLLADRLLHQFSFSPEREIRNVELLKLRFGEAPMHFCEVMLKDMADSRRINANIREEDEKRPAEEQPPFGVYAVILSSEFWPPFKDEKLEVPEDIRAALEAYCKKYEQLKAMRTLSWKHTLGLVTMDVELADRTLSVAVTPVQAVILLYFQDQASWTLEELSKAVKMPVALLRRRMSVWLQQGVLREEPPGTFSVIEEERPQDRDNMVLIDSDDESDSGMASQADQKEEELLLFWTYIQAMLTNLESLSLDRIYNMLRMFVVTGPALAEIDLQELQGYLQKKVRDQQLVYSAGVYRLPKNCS

Compound | MDM2-P53 Flag 8 pt [1] | APC Flag 8 pt [2] | PAD Assay, A549 6 pt [3] | PAD Assay, HELA 6 pt [4] | PAD Assay, HCT116 6 pt [5] | PAD Assay, H1299 6 pt [6] | Cell Titer-Aqueous, A549 6 pt [7] | Cell Titer-Aqueous, HELA 6 pt [8] | Cell Titer-Aqueous, HCT116 6 pt [9]
O=[N+]([O-])c1ccc(Oc2c(Cl)cc(S(=O)(=O)Nc3cccc(C(F)(F)F)c3)cc2Cl)c(Cl)c1 [Example 7, 3,5-dichloro-4-(2-chloro-4-nitrophenoxy)-N-[3-(trifluoromethyl)phenyl]benzene-sulfonamide] | − |  |  |  |  |  |  |  | 
O=S(=O)(Nc1cc(Cl)ccc1Cl)c1ccc(Oc2ncc(C(F)(F)F)cc2Cl)cc1 [Example 253, 4-{[3-chloro-5-(trifluoromethyl)pyridin-2-yl]oxy}-N-(2,5-dichlorophenyl)benzene-sulfonamide] |  | + | + | + | + | + |  |  | 
O=[N+]([O-])c1ccc(Oc2c(Cl)cc(S(=O)(=O)Nc3cc(F)ccc3C(F)(F)F)cc2Cl)c(Cl)c1 [Example 235, 3,5-dichloro-4-(2-chloro-4-nitrophenoxy)-N-[5-fluoro-2-(trifluoromethyl)phenyl] benzenesulfonamide] |  | + | + | + |  | + |  |  | 
O=[N+]([O-])c1ccc(Oc2c(Cl)cc(S(=O)(=O)Nc3cc(C(F)(F)F)ccc3Cl)cc2Cl)c(Cl)c1 [Compound 243, 3,5-dichloro-4-(2-chloro-4-nitrophenoxy)-N-(2-chloro-5-(trifluoromethyl)phenyl]benzenesulfonamide] |  | + | + | + | + | + |  |  | 
O=[N+]([O-])c1ccc(Oc2c(Cl)cc(S(=O)(=O)Nc3ccc(F)cc3)cc2Cl)c(Cl)c1 [Example 23, 3,5-dichloro-4-(2-chloro-4-nitrophenoxy)-N-(4-fluorophenyl)benzenesulfonamide] | − | + | + | + |  |  | + | + | +
O=C(NCC1CC1)c1ccccc1NS(=O)(=O)c1cc(Cl)c(Oc2ccc([N+](=O)[O-])cc2Cl)c(Cl)c1 [Example 123, N-(cyclopropylmethyl)-2-({[3,5-dichloro-4-(2-chloro-4-nitrophenoxy)phenyl]sulfonyl}amino)benzamide] | − | + | + | + |  |  | + | + | +
O=S(=O)(Nc1cc(C(F)(F)F)ccc1Cl)c1ccc(Oc2ncc(C(F)(F)F)cc2Cl)cc1 [Compound 254, N-[2-chloro-5-(trifluoromethyl)phenyl]-4-{[3-chloro-5-(trifluoromethyl)pyridin-2-yl]oxy}benzenesulfonamide] |  | + | + | + | + | + |  |  | 
O=[N+]([O-])c1ccc(Oc2c(Cl)cc(S(=O)(=O)Nc3cccc(Cl)c3)cc2Cl)c(Cl)c1 [Compound 154, 3,5-dichloro-4-(2-chloro-4-nitrophenoxy)-N-(3-chlorophenyl)benzenesulfonamide] |  | + | − | − | − |  | + | + | −
O=[N+]([O-])c1ccc(Oc2c(Cl)cc(S(=O)(=O)Nc3cc(Cl)cc(Cl)c3)cc2Cl)c(Cl)c1 [Example 24, 3,5-dichloro-4-(2-chloro-4-nitrophenoxy)-N-(3,5-dichlorophenyl)benzenesulfonamide] | + | + | − |  |  |  |  |  | 
N=C(NS(=O)(=O)c1cc(Cl)c(Oc2ccc([N+](=O)[O-])cc2)c(Cl)c1)c1ccncc1 [Example 62, N-{[3,5-dichloro-4-(4-nitrophenoxy)phenyl]sulfonyl}pyridine-4-carboximidamide] |  | − | + | + |  |  | + | + | +
O=[N+]([O-])c1ccc(Oc2ccc(S(=O)(=O)Nc3cc(C(F)(F)F)ccc3Cl)cc2Cl)c(C(F)(F)F)c1 [Compound 264] |  | + | + | + |  | + |  |  | 
O=S(=O)(Nc1cc(Cl)ccc1C(F)(F)F)c1cc(Cl)c(Oc2ccc(Cl)cc2Cl)c(Cl)c1 [Compound 249, 3,5-dichloro-N-[5-chloro-2-(trifluoromethyl)phenyl]-4-(2,4-dichlorophenoxy) benzenesulfonamide] |  | + | + | + |  | + |  |  | 
O=[N+]([O-])c1ccc(Oc2c(Cl)cc(S(=O)(=O)Nc3ccc(Cl)c(Cl)c3)cc2Cl)c(Cl)c1 [Compound 167, 3,5-dichloro-4-(2-chloro-4-nitrophenoxy)-N-(3,4-dichlorophenyl)benzenesulfonamide] |  | + | + | + |  | + | + | + | 
Cc1cccc(C)c1NS(=O)(=O)c1cc(Cl)c(Oc2ccc([N+](=O)[O-])cc2Cl)c(Cl)c1 [Example 146, 3,5-dichloro-4-(2-chloro-4-nitrophenoxy)-N-(2,6-dimethylphenyl)benzenesulfonamide] |  | + | + | + |  |  | + | + | +
